Assay results from patent US20230321086A1, “METHODS AND MATERIALS FOR INHIBITING NICOTINAMIDE PHOSPHORIBOSYLTRANSFERASE ACTIVITY” (Universiy of Pittsburgh - Of the Commonwealth System of …, priority 2020, published 2023).

The molecules below were run on A431 cells (assay: Assay for total NADH and NAD+ measurements in cells). Conditions: percent of NAD level of untreated control cells (100 = no change).
Format: cell-based
Parameters: C: change in NAD levels in response to test compound, shown as % of NAD activity in the absence of test compound: concentration or dose not given beside the values
Protocol: 2,000 cells/well and, at the same time, test compounds dissolved in media at the desired concentration were added to each well. The treated cells were incubated overnight in C02 incubator. The cells were washed 6 times with PBS with 1 mM CaCl2) and 1 mM MgCl2. In the last wash, 10 μL of PBS with 1 mM CaCl2) and 1 mM MgCl2 per well were left in each well. Immediately thereafter, 10 μL 0.4% dodecyltrimethylammonium bromide (DTAB) in phosphate buffer pH 8.0 as added, and the plates were shaked at 1000 rpm for 5 minutes. 60 μL reaction mix was added, and fluorescence at Ex/Em 530/585 was immediately monitored. A linear increase should be achieved with 8 cycles every 92 seconds, 10 number of flashes/well/cycle. The reaction mix was prepared per the following table, respecting the amount and order in which each component was added:
All assays were performed in A431 cells. Referring to the tables below, activity: “+” ≥25 μM, “++” ≥1 μM and <25 μM, and “+++”<1 μM.
In each table header, A: NAMPT enzyme inhibitory activity, IC50 (μM); B: Cellular NAD inhibitory activity, IC50 (μM); and C: change in NAD levels in response to test compound, shown as % of NAD activity in the absence of test compound. […] A percentage of 100 percent would indicate no increase or decrease in NAD levels as compared to that measured for untreated control cells, while a percentage of 50 percent would indicate a decrease in NAD levels of 50 percent as compared to that measured for untreated control cells.

Point of comparison: `O=C(NCC1CC1)Nc1ccc2nc(-c3ccc(F)cc3)c(-c3ccc(F)cc3)nc2c1` [BC19569], “C: change in NAD levels in response to test compound, shown as % of NAD activity in the absence of test compound” value 57%. Against it:
- CCNC(=O)Nc1ccc2nc(-c3ccc(F)cc3)c(-c3ccc(F)cc3)nc2c1 [BC19563] — higher, 90%
- Cn1cc(-c2ccc3nc(-c4ccc(F)cc4)c(-c4ccc(F)cc4)nc3c2)cn1 [BC19302] — higher, 58%
- CCc1nnc(-c2ccc3nc(-c4ccc(F)cc4)c(-c4ccc(F)cc4)nc3c2)o1 [BC19246] — higher, 58%
- CN1CCN(C(=O)c2ccc3nc(C(F)(F)F)c(-c4ccc(F)cc4)nc3c2)CC1 [BC19103] — higher, 92%
- OCCn1cc(-c2ccc3nc(-c4ccc(F)cc4)c(-c4ccc(F)cc4)nc3c2)nn1 [BC19396] — higher, 60%
- O=S(=O)(NCCCO)c1ccc2nc(-c3ccc(F)cc3)c(-c3ccc(F)cc3)nc2c1 [BC19509] — higher, 66%
- CN(C)CCNC(=O)Nc1ccc2nc(-c3ccc(F)cc3)c(-c3ccc(F)cc3)nc2c1 [BC19564] — lower, 5%
- O=S(=O)(NC1CC1)c1ccc2nc(-c3ccc(F)cc3)c(-c3ccc(F)cc3)nc2c1 [BC19505] — lower, 30%
- COCC(=O)N1CCC(C(=O)Nc2ccc3nc(-c4ccc(F)cc4)c(-c4ccc(F)cc4)nc3c2)CC1 [BC19494] — lower, 52%
- Cn1nnnc1-c1ccc2nc(-c3ccc(F)cc3)c(C(F)(F)F)nc2c1 [BC19152] — higher, 93%
- OCCCn1cnnc1-c1ccc2nc(-c3ccc(F)cc3)c(-c3ccc(F)cc3)nc2c1 [BC19665] — higher, 58%
- CN1CCOc2cc(-c3ccc4nc(-c5ccc(F)cc5)c(-c5ccc(F)cc5)nc4c3)ccc21 [BC19244] — higher, 86%
- CS(=O)(=O)N1CCC(C(=O)Nc2ccc3nc(-c4ccc(F)cc4)c(-c4ccc(F)cc4)nc3c2)CC1 [BC19312] — lower, 54%
- O=C(Nc1ccc2nc(-c3ccc(F)cc3)c(-c3ccc(F)cc3)nc2c1)OCC(F)(F)F [BC19239] — higher, 66%
- O=C(Nc1ccc2nc(-c3ccc(F)cc3)c(-c3ccc(F)cc3)nc2c1)NC1CC1 [BC19568] — higher, 81%
- CN1CCN(C(=O)c2ccc3nc(C(F)(F)F)c(-c4cccc(F)c4)nc3c2)CC1 [BC19142] — higher, 94%
- O=S(=O)(NCCCN1CCOCC1)c1ccc2nc(-c3ccc(F)cc3)c(-c3ccc(F)cc3)nc2c1 [BC19508] — lower, 28%
- CN1CCN(C(=O)C2CCc3nc(-c4ccc(F)cc4)c(-c4ccc(F)cc4)nc3C2)CC1 (centres unmarked) [BC19663] — lower, 18%
- O=C(NCCN1CCOCC1)c1ccc2nc(-c3ccc(Cl)cc3)c(-c3ccc(Cl)cc3)nc2c1 [BC19497] — lower, 49%
- CN(C)CCCNS(=O)(=O)c1ccc2nc(-c3ccc(F)cc3)c(-c3ccc(F)cc3)nc2c1 [BC19562] — lower, 1%
- Oc1ccc2nc(-c3ccc(F)cc3)c(-c3ccc(F)cc3)nc2n1 [BC19448] — higher, 78%
- CC(=O)N1CCC(C(=O)Nc2ccc3nc(-c4ccc(F)cc4)c(-c4ccc(F)cc4)nc3c2)CC1 [BC19310] — lower, 52%
- CNc1ncc(-c2ccc3nc(-c4ccc(F)cc4)c(-c4ccc(F)cc4)nc3c2)o1 [BC19619] — lower, 55%
- CS(=O)(=O)c1cncc(-c2ccc3nc(-c4ccc(F)cc4)c(-c4ccc(F)cc4)nc3c2)c1 [BC19243] — higher, 64%
- O=S(=O)(NCc1ccccn1)c1ccc2nc(-c3ccc(F)cc3)c(-c3ccc(F)cc3)nc2c1 [BC19559] — lower, 42%
- CCc1ccc(-c2nc3cc(C(=O)N4CCN(C)CC4)ccc3nc2-c2ccc(F)cc2)cc1 [BC19319] — higher, 95%
- C/N=C(\c1ccc2nc(-c3ccc(F)cc3)c(-c3ccc(F)cc3)nc2c1)N1CCN(C)CC1 [BC19668] — lower, 31%
- CN1CCN(C(=O)c2cnc3nc(-c4ccc(F)cc4)c(-c4ccc(F)cc4)nc3c2)CC1 [BC19408] — higher, 95%
- CN1CCN(C(=O)C2Cc3nc(-c4ccc(F)cc4)c(-c4ccc(F)cc4)nc3C2)CC1 [BC19723] — lower, 54%
- O=S(=O)(NCc1cccnc1)c1ccc2nc(-c3ccc(F)cc3)c(-c3ccc(F)cc3)nc2c1 [BC19557] — higher, 63%
- C#CCNC(=O)c1ccc2nc(-c3cccs3)c(-c3ccc(F)cc3)nc2c1 [BC19120] — higher, 84%
- CC#CC(=O)Nc1ccc2nc(-c3ccc(F)cc3)c(-c3ccc(F)cc3)nc2c1 [BC19314] — lower, 33%
- O=C(NCCO)Nc1ccc2nc(-c3ccc(F)cc3)c(-c3ccc(F)cc3)nc2c1 [BC19566] — higher, 77%
- Cn1oc(-c2ccc3nc(-c4ccc(F)cc4)c(-c4ccc(F)cc4)nc3c2)cc1=O [BC19667] — lower, 38%
- Fc1ccc(-c2nc3cccnc3nc2-c2ccc(F)cc2)cc1 [BC19403] — higher, 68%
- C#CC(=O)Nc1ccc2nc(-c3ccc(F)cc3)c(-c3ccc(F)cc3)nc2c1 [BC19397] — higher, 65%
- Fc1ccc(-c2nc3ccc(-c4cccnc4)cc3nc2-c2ccc(F)cc2)cc1 [BC19242] — higher, 72%
- O=C(NCc1cccnc1)Nc1ccc2nc(-c3ccc(F)cc3)c(-c3ccc(F)cc3)nc2c1 [BC19571] — lower, 10%
- CN1CCN(C(=O)c2ccc3nc(-c4ccc(F)cc4)c(-c4cccs4)nc3c2)CC1 [BC19185] — higher, 94%
- O=C(NCCCN1CCOCC1)Nc1ccc2nc(-c3ccc(F)cc3)c(-c3ccc(F)cc3)nc2c1 [BC19576] — higher, 61%
- O=C(c1ccc2nc(-c3ccc(F)cc3)c(-c3ccc(F)cc3)nc2c1)N1CCN(CCOCCO)CC1 [BC19514] — higher, 73%
- Fc1ccc(-c2nc3ccc(-c4nnc[nH]4)cc3nc2-c2ccc(F)cc2)cc1 [BC19143] — higher, 80%
- O=C(NCc1ccncc1)Nc1ccc2nc(-c3ccc(F)cc3)c(-c3ccc(F)cc3)nc2c1 [BC19572] — lower, 26%
- Cc1cnc(-c2ccc3nc(-c4ccc(F)cc4)c(-c4ccc(F)cc4)nc3c2)o1 [BC19140] — higher, 90%
- Cn1ncc2c(-c3ccc4nc(-c5ccc(F)cc5)c(-c5ccc(F)cc5)nc4c3)cccc21 [BC19305] — higher, 93%
- Cc1nc(C)c(-c2ccc3nc(-c4ccc(F)cc4)c(-c4ccc(F)cc4)nc3c2)s1 [BC19241] — higher, 79%
- O=S(=O)(NCC1CC1)c1ccc2nc(-c3ccc(F)cc3)c(-c3ccc(F)cc3)nc2c1 [BC19506] — higher, 66%
- COCCCNS(=O)(=O)c1ccc2nc(-c3ccc(F)cc3)c(-c3ccc(F)cc3)nc2c1 [BC19554] — lower, 52%
- CN1CCN(C(=O)c2ccc3nc(-c4ccc(F)cc4)c(Nc4ccc(F)cc4)nc3c2)CC1 [BC19578] — higher, 89%
- CC(C)OC(=O)Nc1ccc2nc(-c3ccc(F)cc3)c(-c3ccc(F)cc3)nc2c1 [BC19195] — higher, 90%
- O=S(=O)(NCCN1CCOCC1)c1ccc2nc(-c3ccc(F)cc3)c(-c3ccc(F)cc3)nc2c1 [BC19504] — higher, 58%
- Fc1ccc(-c2nc3ccc(-c4cn(CCN5CCOCC5)nn4)cc3nc2-c2ccc(F)cc2)cc1 [BC19240] — lower, 27%
